Patent publication US20020164581A1 (priority 2001, published 2002)
Several values for one entry are separate records, joined by “and”; a condition that tells them apart may be missing. Equal entries are not always repeated. Where two headings read alike, the source gives them in different places.

Legend:
female and male bAECs = type: cell-based, bovine; settings: for mean DCFH fluorescence: separate set of donors, 45-minute paraquat exposure
Procedure: For flow cytometric analysis (after E2 treatment), female and male bAECs were trypsinized, rinsed, and resuspended in PBS containing 2% BSA at a density of 5×10^5 cells/ml. The cells were loaded with dichlorofluorescin diacetate (Molecular Probes, Eugene, Oreg.) (dissolved in DMSO) at 5 μg/ml for 15 minutes followed by paraquat insult (1 mM) at room temperature in the dark. At the designated times, aliquots were withdrawn, placed on ice, and the fluorescence of oxidized DCFH was analyzed by a FACSCalibur™ flow cytometer (Becton-Dickinson, San Jose, Calif.) equipped with an argon laser. A collection filter for the green emission of oxidized DCFH (530/30 nm) was used. Fluorescence signal was collected in log mode and analyzed using Cellquest™ software (Becton-Dickinson).
SOD can dismutate the superoxide radical to hydrogen peroxide, which is subsequently detoxified by CAT or GPX. […] This theory was tested by comparing the level of ROS in female and male bAECs during subsequent oxidant exposure. Following E2 treatment for 24 hours, cells were loaded with dichlorofluorescein diacetate, which penetrates their plasma membranes and is converted to 2′,7′-dichlorofluorescein (DCFH) by intracellular esterases. This nonfluorescent compound, once oxidized by ROS such as hydrogen peroxide, turns to a highly fluorescent derivative.

[1] = test system: antioxidant enzymes (SOD, CAT, GPX, GR) in bAECs; test: Antioxidant enzyme (AOE) activities in cell lysates, all four enzymes together; type: cell-based, bovine
Procedure: […] The cells were then lysed on ice by sonication at a setting of 50 mW, with 3×15 set cycles using a Cole-Parmer Ultrasonic Homogenizer (Chicago, Ill.). Protein concentrations in the samples were determined by the Bradford method with bovine serum albumin as a standard (Bradford, Anal. Biochem. 72:248-254, 1976).
SOD activity was determined by a method based on the ability of SOD to suppress epinephrine auto-oxidation (Misra and Fridovich, J.Biol. Chem. 247:3170-3175, 1972). One unit of SOD activity is defined as the amount of protein that inhibits the oxidation of epinephrine by 50%. Briefly, 100 μl of 10×-diluted cell homogenate (about 10 μg protein) was added to 900 μl of carbonate buffer (0.1 M NaHCO3, 0.1 M Na2CO3, 0.1 mM EDTA, pH 10.2) containing 0.7 mM of epinephrine. The absorbency of the mixture was measured for 4 minutes at 480 nm using a Hitachi U-2000 spectrophotometer (Hitachi, San Jose, Calif.).
CAT activity was determined by the method of Aebi (Methods Enzymol. 105:121,-126, 1984). One unit of CAT activity is defined as the amount of protein that degrades 1 μmole of H2O2 per minute. Initially, 10 μl of absolute ethanol was mixed with 100 μl of cell homogenates and pre-incubated at 4° C. for 30 minutes. Following the addition of 10 μl Triton X-100 (reduced form), a 100 μl aliquot (about 100 μg of protein) of the resultant mixture was next added to 500 μl of hydrogen peroxide (66 mM) and 400 μl of phosphate buffer (0.1 M NaH2PO4, 0.1 M Na2HPO4, 0.1 mM EDTA, pH 7.0). The absorbency of the mixture was monitored for one minute at 240 nm spectrophotometrically. The molar extinction coefficient of 43.6 M/cm was used to determine the catalase activity.
GPX activity was determined by a modified method of Flohe and Gunzler (Methods Enzymol. 105:114-121, 1984). One unit of GPX activity is defined as the amount of protein that oxidizes 1 nmole of β-NADPH per minute. In this assay, 100 μl of cell homogenate (about 100 μg protein) was added to 800 μl of phosphate buffer (0.1 M NaH2PO4, 0.1 M Na2HPO4, 0.1 mM EDTA, pH 7.0) containing 12.5 mM glutathione (reduced form, GSH), 0.2 mM β-nicotinamide adenine dinucleotide phosphate (reduced form, β-NADPH), and 0.34 U glutathione reductase. This mixture was pre-incubated at 37 C for 10 minutes and then 100 μl of 12 mM t-butyl hydroperoxide was added. The absorbency of the mixture was determined at 340 nm for 3 minutes. The molar extinction coefficient of 6.22 mM/cm was used to determine the activity of GPX.
GR activity was determined by a modified method of Carlberg and Mannervik (Methods Enzymol. 11 3:484-490, 1985). One unit of GR activity is defined as the amount of protein that oxidizes 1 nmole of β-NADPH per minute. Briefly, 50 μl of 2 mM β-NADPH in 10 mM Tris buffer (pH 7.0) was added to a cuvette containing 50 μl of 20 mM glutathione (oxidized ofrm, GSSG) in phosphate buffer (0.1 M NaH2PO4, 0.1 M Na2HPO4, 0.1 mM EDTA, pH 7.0) and 800 μl of phosphate buffer. Following the addition of cell homogenate (about 100 μg protein/100 μl) the final mixture was measured at 340 nm for 3 minutes. The molar extinction coefficient of 6.22 mM/cm was used to determine the activity of […].

In the case of C[C@]12CC[C@@H]3c4ccc(O)cc4CC[C@H]3[C@@H]1CC[C@@H]2O [E2, 17β-estradiol], the “mean fluorescence intensity of oxidized DCFH” value (female and male bAECs) is reported as 795 and 1323, the “basal level of DCFH oxidation, female vs male” value (female and male bAECs; E2-pretreated cells, before paraquat) is reported as “similar” and the “mean DCFH fluorescence” value (female and male bAECs; female bAECs) is reported as 1002. For the same compound, the “mean DCFH fluorescence” value (female and male bAECs; male bAECs) was 1581, the “AOE activities after brief incubation” value ([1]; 1 nM E2, 30 minutes) was “did not affect the activities of AOEs” and the “activities of the four antioxidant enzymes” value ([1]; 1 nM-10 μM E2, 24 h) was “significant increases in the activities of all four of the enzymes tested”. For the same compound, the “E2 concentration of optimal AOE induction” value ([1]; 24 h pretreatment) was 1 to 10 nM, the AOE activities ([1]; female bAECs, 24 hour, 1 nM E2) was “significant elevation of all of the four AOE activities tested” and the AOE activities ([1]; male bAECs incubated with 1 nM E2) was “not induced”.
